Read-outs that look alike come from different tables or passages of the source.
Key:
[1] = test system: immortalized lung BEAS-2B normal cell lines; experiment: MTT cytotoxicity assay, normal lung BEAS-2B cells; format: cell-based; conditions: Homo sapiens, 72 h, read-out: BEAS-2B Cells IC50
Experimental: (§1) Adenocarcinomic human alveolar basal epithelial (A549) and human hepatoma (HepG2) cancer cell lines, immortalized normal human liver (LO2), human bronchial epithelial (BEAS-2B cells were purchased from [NT], Manassas, VA, USA). […] Invitrogen, Waltham, MA, USA). All cells were incubated at 37 °C in a 5% humidified CO2 incubator). All test compounds were dissolved in DMSO at a final concentration of 50 mM and stored at -20 °C before use. Cytotoxicity was assessed by the MTT (5 mg/mL) assay, as described previously. Briefly, 5 × 10^3 cells per well were seeded in 96-well plates before drug treatments. […] Cells without drug treatment were used as controls. Subsequently, 10 μL of 5 mg/mL MTT solution was added to each well and incubated at 37 °C for 4 h, followed by the addition of 100 μL solubilization buffer (12 mM HCl in a solution of 10% SDS) and overnight incubation. The absorbance, A570 nm, was then determined in each well on the next day. The percentage of cell viability was calculated using the expression: % viability = Atreated/Acontrol × 100, and was given as cytotoxicity (Table 2 and Table 3; […]

[2] = test system: human lung A549 cancer cell lines; experiment: MTT cytotoxicity assay, lung cancer A549 cells; format: cell-based; conditions: for IC50: Homo sapiens, read-out: A549 Cells IC50; for S.I. Selectivity index lung (IC50 normal cells/IC50 cancer cells): BEAS-2B IC50 / A549 IC50
Experimental: as §1

[3] = test system: human HepG2 cancer cell lines; experiment: MTT cytotoxicity assay, liver cancer HepG2 cells; format: cell-based; conditions: for IC50: read-out: HepG2 Cells IC50; for S.I. Selectivity index liver (IC50 normal cells/IC50 cancer cells): LO2 IC50 / HepG2 IC50
Experimental: as §1

[4] = test system: immortalized liver LO2 normal cell lines; experiment: MTT cytotoxicity assay, normal liver LO2 cells; format: cell-based; conditions: Homo sapiens, read-out: LO2 Cells IC50
Experimental: as §1

[5] = MTT, 0.19–100 μM, normal lung cells
[6] = A549, MTT, 72 h, 0.19–100 μM, means of at least three independent experiments in duplicates
[7] = Homo sapiens, HepG2, 72 h, MTT, 72 h, 0.19–100 μM, means of at least three independent experiments in duplicates
[8] = L02, MTT, 72 h, 0.19–100 μM, normal liver cells

Row | SMILES | melting point [°C] | IC50 [1, 5] [µM] | IC50 [2, 6] [µM] | IC50 [3, 7] [µM] | IC50 [4, 8] [µM] | S.I. Selectivity index lung (IC50 normal cells/IC50 cancer cells) [2] | S.I. Selectivity index liver (IC50 normal cells/IC50 cancer cells) [3] | IC50 [1] [µM] | IC50 ([2]; A549, 72 h) [µM] | IC50 ([3]; Homo sapiens, HepG2, 72 h) [µM] | IC50 ([4]; L02, 72 h) [µM] | IC50 ([3]; MTT, 72 h, 0.19–100 μM, means of at least three independent experiments in duplicates) [µM]
1 | C[C@@H]1CC[C@H]2[C@@H](C)C(=O)O[C@@H]3O[C@@]4(C)CC[C@@H]1[C@]32OO4 [ART, artemisinin, reference compound] | – | 100 | 100 | > 100 | > 100 | – | – | – | – | – | – | –
2 | C[C@H]1[C@H](OC(=O)CCC(=O)O)O[C@@H]2O[C@@]3(C)CC[C@H]4[C@H](C)CC[C@@H]1[C@@]24OO3 [AS, artesunic acid, reference compound] | – | 7.53 | 9.85 | 4.09 ± 0.4 | 8.25 | 0.76 | 2.01 | – | – | – | – | –
3 | CCN(CC)CCCC(C)Nc1ccnc2cc(Cl)ccc12 (centres unmarked) [CQ, chloroquine, reference compound] | – | – | – | – | – | – | 0.30 | 3.07 | 100 | 49.02 ± 0.4 | 15 | –
4 | COc1ccc(OC)c(C2C([N+](=O)[O-])C(CC(C)C)NC23C(=O)Nc2ccccc23)c1 (centres unmarked) [Compound 4a, 3′-(2,5-dimethoxyphenyl)-5′-isobutyl-4′-nitrospiro[indoline-3,2′-pyrrolidin]-2-one] | 182 to 184 | > 100 | > 100 | > 100 | > 100 | – | – | – | – | – | – | –
5 | COc1ccc(OC)c(C2C([N+](=O)[O-])C(C)NC23C(=O)Nc2ccccc23)c1 (centres unmarked) [Compound 4b, 3′-(2,5-dimethoxyphenyl)-5′-methyl-4′-nitrospiro[indoline-3,2′-pyrrolidin]-2-one] | 150 to 152 | > 100 | > 100 | > 100 | > 100 | – | – | – | – | – | – | –
6 | COc1ccc(OC)c(C2C([N+](=O)[O-])C(CC(C)C)NC23C(=O)Nc2ccc(Br)cc23)c1 (centres unmarked) [Compound 4c, 5-bromo-3′-(2,5-dimethoxyphenyl)-5′-isobutyl-4′-nitrospiro[indoline-3,2′-pyrrolidin]-2-one] | 142 to 144 | 33.5 | 35 | 60.3 | 37.6 | 0.96 | 0.62 | – | – | – | – | –
7 | COc1cc(C2C([N+](=O)[O-])C3CCCN3C23C(=O)Nc2ccccc23)ccc1OCc1ccccc1 (centres unmarked) [Compound 4n, 2′-(4-(benzyloxy)-3-methoxyphenyl)-1′-nitro-1′,2′,5′,6′,7′,7a′-hexahydrospiro[indoline-3,3′-pyrrolizin]-2-one] | 66 to 68 | > 100 | > 100 | > 100 | > 100 | – | – | – | – | – | – | –
8 | COc1cc(C2C([N+](=O)[O-])C3CCCN3C23C(=O)Nc2ccc(Br)cc23)ccc1OCc1ccccc1 (centres unmarked) [Compound 4o, 2′-(4-(benzyloxy)-3-methoxyphenyl)-5-bromo-1′-nitro-1′,2′,5′,6′,7′,7a′-hexahydrospiro[indoline-3,3′-pyrrolizin]-2-one] | 95 to 97 | > 100 | > 100 | > 100 | > 100 | – | – | – | – | – | – | –
9 | COc1ccc(C2C([N+](=O)[O-])C3CCCN3C23C(=O)Nc2ccccc23)cc1OCc1ccccc1 (centres unmarked) [Compound 4p, 2′-(3-(benzyloxy)-4-methoxyphenyl)-1′-nitro-1′,2′,5′,6′,7′,7a′-hexahydrospiro[indoline-3,3′-pyrrolizin]-2-one] | 83 to 85 | > 100 | > 100 | > 100 | > 100 | – | – | – | – | – | – | –
10 | COc1ccc(C2C([N+](=O)[O-])C3CCCN3C23C(=O)Nc2ccc(Br)cc23)cc1OCc1ccccc1 (centres unmarked) [Compound 4q, 2′-(3-(benzyloxy)-4-methoxyphenyl)-5-bromo-1′-nitro-1′,2′,5′,6′,7′,7a′-hexahydrospiro[indoline-3,3′-pyrrolizin]-2-one] | 98 to 100 | > 100 | 47.9 | 85.6 | 46.8 | – | 0.54 | – | – | – | – | 86.5
11 | COc1ccc(C2C([N+](=O)[O-])C3CCCN3C23C(=O)Nc2ccccc23)cc1 (centres unmarked) [Compound 4r, 2′-(4-methoxyphenyl)-1′-nitro-1′,2′,5′,6′,7′,7a′-hexahydrospiro[indoline-3,3′-pyrrolizin]-2-one] | 116 to 118 | > 100 | > 100 | > 100 | > 100 | – | – | – | – | – | – | –

More lines, main results first:

Row | melting point [°C] | SMILES | IC50 [1, 5] [µM] | IC50 [2, 6] [µM] | IC50 [3, 7] [µM] | IC50 [4, 8] [µM] | S.I. Selectivity index lung (IC50 normal cells/IC50 cancer cells) [2] | S.I. Selectivity index liver (IC50 normal cells/IC50 cancer cells) [3] | IC50 [1] [µM] | IC50 ([2]; A549, 72 h) [µM] | IC50 ([3]; Homo sapiens, HepG2, 72 h) [µM] | IC50 ([4]; L02, 72 h) [µM] | IC50 ([3]; MTT, 72 h, 0.19–100 μM, means of at least three independent experiments in duplicates) [µM]
12 | 210 to 212 | COc1ccc(OC)c(C2C([N+](=O)[O-])C(C(C)C)NC23C(=O)Nc2ccccc23)c1 (centres unmarked) [Compound 4d, 3′-(2,5-dimethoxyphenyl)-5′-isopropyl-4′-nitrospiro[indoline-3,2′-pyrrolidin]-2-one] | > 100 | > 100 | > 100 | > 100 | – | – | – | – | – | – | –
13 | 108 to 110 | COc1ccc(OC)c(C2C([N+](=O)[O-])C(C)NC23C(=O)Nc2ccc(Br)cc23)c1 (centres unmarked) [Compound 4e, 5-bromo-3′-(2,5-dimethoxyphenyl)-5′-methyl-4′-nitrospiro[indoline-3,2′-pyrrolidin]-2-one] | > 100 | 85.6 | > 100 | 81.3 | – | <0.81 | – | – | – | – | –
14 | 95 to 97 | COc1ccc(C2C([N+](=O)[O-])C(CC(C)C)NC23C(=O)Nc2ccc(Br)cc23)cc1OCc1ccccc1 (centres unmarked) [Compound 4f, 3′-(3-(benzyloxy)-4-methoxyphenyl)-5-bromo-5′-isobutyl-4′-nitrospiro[indoline-3,2′-pyrrolidin]-2-one] | > 100 | 41.1 | 82 | > 100 | – | – | – | – | – | – | –
15 | 155 to 157 | COc1ccc(C2C([N+](=O)[O-])C(Cc3ccccc3)NC23C(=O)Nc2ccc(Br)cc23)cc1OCc1ccccc1 (centres unmarked) [Compound 4g, 5′-benzyl-3′-(3-(benzyloxy)-4-methoxyphenyl)-5-bromo-4′-nitrospiro[indoline-3,2′-pyrrolidin]-2-one] | > 100 | > 100 | > 100 | > 100 | – | – | – | – | – | – | –
16 | 73 to 75 | COc1ccc(C2C([N+](=O)[O-])C(CC(C)C)NC23C(=O)Nc2ccccc23)cc1OC (centres unmarked) [Compound 4h, 3′-(3,4-dimethoxyphenyl)-5′-isobutyl-4′-nitrospiro[indoline-3,2′-pyrrolidin]-2-one] | > 100 | > 100 | > 100 | > 100 | – | – | – | – | – | – | –
17 | 165 to 167 | COc1ccc(C2C([N+](=O)[O-])C(C)NC23C(=O)Nc2ccccc23)cc1OC (centres unmarked) [Compound 4i, 3′-(3,4-dimethoxyphenyl)-5′-methyl-4′-nitrospiro[indoline-3,2′-pyrrolidin]-2-one] | > 100 | > 100 | > 100 | > 100 | – | – | – | – | – | – | –
18 | 155 to 157 | COc1ccc(C2C([N+](=O)[O-])C(C)NC23C(=O)Nc2ccc(Br)cc23)cc1OC (centres unmarked) [Compound 4j, 5-bromo-3′-(3,4-dimethoxyphenyl)-5′-methyl-4′-nitrospiro[indoline-3,2′-pyrrolidin]-2-one] | > 100 | > 100 | > 100 | > 100 | – | – | – | – | – | – | –
19 | 68 to 70 | COc1cc(C2C([N+](=O)[O-])C(CC(C)C)NC23C(=O)Nc2ccccc23)ccc1OCc1ccccc1 (centres unmarked) [Compound 4k, 3′-(4-(benzyloxy)-3-methoxyphenyl)-5′-isobutyl-4′-nitrospiro[indoline-3,2′-pyrrolidin]-2-one] | > 100 | > 100 | 67.8 | 33.3 | – | 0.49 | – | – | – | – | –
20 | 168 to 170 | COc1cc(C2C([N+](=O)[O-])C(C)NC23C(=O)Nc2ccccc23)ccc1OCc1ccccc1 (centres unmarked) [Compound 4l, 3′-(4-(benzyloxy)-3-methoxyphenyl)-5′-methyl-4′-nitrospiro[indoline-3,2′-pyrrolidin]-2-one] | > 100 | > 100 | > 100 | > 100 | – | – | – | – | – | – | –
21 | 168 to 170 | COc1cc(C2C([N+](=O)[O-])C(C)NC23C(=O)Nc2ccc(Br)cc23)ccc1OCc1ccccc1 (centres unmarked) [Compound 4m, 3′-(4-(benzyloxy)-3-methoxyphenyl)-5-bromo-5′-methyl-4′-nitrospiro[indoline-3,2′-pyrrolidin]-2-one] | 63.5 | 45.9 | 41.6 | 36.6 | 1.38 | 0.88 | – | – | – | – | –
